# Test results reported in ChEMBL document CHEMBL1201862, “PubChem BioAssay data set” (2004).
#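 Cells were grown in 96-well plates and exposed to each compound for 48 hours at five concentrations; endpoints were interpolated linearly between bracketing concentrations, or set to the highest concentration if not reached. GI50: concentration for 50% inhibition of growth.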 Activity calls are given as the source filed them. No stated cut-off is given here; in the data, active = GI50 up to about 1.1 µM and inactive = higher.
# Experiments:
# Test in all cases: NCI tumour cell line growth inhibition, 48 h
# NCI/ADR-RES = tested on: NCI/ADR-RES
# DU-145 = tested on: DU-145
# U-251 = tested on: U-251
# LOX IMVI = tested on: LOX IMVI
# OVCAR-4 = tested on: OVCAR-4
# UACC-257 = tested on: UACC-257
# SK-MEL-2 = tested on: SK-MEL-2
# BT-549 = tested on: BT-549
# MOLT-4 = tested on: MOLT-4
# SK-OV-3 = tested on: SK-OV-3
# SN12C = tested on: SN12C
# CAKI-1 = tested on: CAKI-1
# KM12 = tested on: KM12
# HT-29 = tested on: HT-29
# OVCAR-3 = tested on: OVCAR-3
# UACC-62 = tested on: UACC-62
# NCI-H226 = tested on: NCI-H226
# OVCAR-5 = tested on: OVCAR-5
# PC-3 = tested on: PC-3
# HCT-15 = tested on: HCT-15
# MDA-N = tested on: MDA-N
# 786-0 = tested on: 786-0
# A549 = tested on: A549
# NCI-H23 = tested on: NCI-H23
# OVCAR-8 = tested on: OVCAR-8
# MDA-MB-435 = tested on: MDA-MB-435
# M14 = tested on: M14
# K562 = tested on: K562
# Malme-3M = tested on: Malme-3M
# SR = tested on: SR
# Hs-578T = tested on: Hs-578T
# UO-31 = tested on: UO-31
# RXF 393 = tested on: RXF 393
# SW-620 = tested on: SW-620
# SF-268 = tested on: SF-268
# IGROV-1 = tested on: IGROV-1
# A498 = tested on: A498
# SNB-19 = tested on: SNB-19
# EKVX = tested on: EKVX
# COLO 205 = tested on: COLO 205
# HOP-92 = tested on: HOP-92
# RPMI-8226 = tested on: RPMI-8226
# MCF7 = tested on: MCF7
# ACHN = tested on: ACHN
# SF-295 = tested on: SF-295
# HL-60 = tested on: HL-60
# HCT-116 = tested on: HCT-116
# SK-MEL-28 = tested on: SK-MEL-28
# T47D = tested on: T47D
# HOP-62 = tested on: HOP-62
# SK-MEL-5 = tested on: SK-MEL-5
# NCI-H522 = tested on: NCI-H522
# NCI-H460 = tested on: NCI-H460
# TK-10 = tested on: TK-10
# HCC 2998 = tested on: HCC 2998
# SF-539 = tested on: SF-539
# SNB-75 = tested on: SNB-75
# MDA-MB-231 = tested on: MDA-MB-231
# CCRF-CEM = tested on: CCRF-CEM
structure (smiles),measurement,setting,value
COP(=O)(OC)C(O)/C=C/c1ccco1 (stereo unspecified),GI50,NCI/ADR-RES,> 100 µM (inactive)
same,GI50,DU-145,> 100 µM (inactive)
same,GI50,U-251,> 100 µM (inactive)
same,GI50,LOX IMVI,> 100 µM (inactive)
same,GI50,OVCAR-4,> 100 µM (inactive)
same,GI50,UACC-257,> 100 µM (inactive)
same,GI50,SK-MEL-2,> 100 µM (inactive)
same,GI50,BT-549,> 100 µM (inactive)
same,GI50,MOLT-4,> 100 µM (inactive)
same,GI50,SK-OV-3,> 100 µM (inactive)
same,GI50,SN12C,> 100 µM (inactive)
same,GI50,CAKI-1,> 100 µM (inactive)
same,GI50,KM12,> 100 µM (inactive)
same,GI50,HT-29,> 100 µM (inactive)
same,GI50,OVCAR-3,> 100 µM (inactive)
same,GI50,UACC-62,> 100 µM (inactive)
same,GI50,NCI-H226,> 100 µM (inactive)
same,GI50,OVCAR-5,> 100 µM (inactive)
same,GI50,PC-3,> 100 µM (inactive)
same,GI50,HCT-15,> 100 µM
same,GI50,MDA-N,> 100 µM (inactive)
same,GI50,786-0,> 100 µM (inactive)
same,GI50,A549,> 100 µM (inactive)
same,GI50,NCI-H23,> 100 µM (inactive)
same,GI50,OVCAR-8,> 100 µM (inactive)
same,GI50,MDA-MB-435,> 100 µM (inactive)
same,GI50,M14,> 100 µM (inactive)
same,GI50,K562,> 100 µM (inactive)
same,GI50,Malme-3M,> 100 µM (inactive)
same,GI50,SR,> 100 µM (inactive)
same,GI50,Hs-578T,> 100 µM (inactive)
same,GI50,UO-31,> 100 µM (inactive)
same,GI50,RXF 393,> 100 µM (inactive)
same,GI50,SW-620,> 100 µM (inactive)
same,GI50,SF-268,> 100 µM (inactive)
same,GI50,IGROV-1,> 100 µM (inactive)
same,GI50,A498,> 100 µM (inactive)
same,GI50,SNB-19,> 100 µM (inactive)
same,GI50,EKVX,> 100 µM (inactive)
same,GI50,COLO 205,> 100 µM (inactive)
same,GI50,HOP-92,> 100 µM (inactive)
same,GI50,RPMI-8226,> 100 µM (inactive)
same,GI50,MCF7,> 100 µM (inactive)
same,GI50,ACHN,> 100 µM (inactive)
same,GI50,SF-295,> 100 µM (inactive)
same,GI50,HL-60,> 100 µM (inactive)
same,GI50,HCT-116,> 100 µM (inactive)
same,GI50,SK-MEL-28,> 100 µM (inactive)
same,GI50,T47D,> 100 µM (inactive)
same,GI50,HOP-62,> 100 µM (inactive)
same,GI50,SK-MEL-5,> 100 µM (inactive)
same,GI50,NCI-H522,> 100 µM (inactive)
COc1ccc(C2SCC(=O)N2NC(=O)C(C)Oc2ccccc2Cl)cc1 (stereo unspecified),GI50,NCI/ADR-RES,63.2 µM (inactive)
same,GI50,DU-145,94.8 µM (inactive)
same,GI50,U-251,38 µM (inactive)
same,GI50,NCI-H460,70.1 µM (inactive)
same,GI50,LOX IMVI,24.5 µM (inactive)
same,GI50,OVCAR-4,60.7 µM (inactive)
same,GI50,UACC-257,> 100 µM (inactive)
same,GI50,SK-MEL-2,18.7 µM (inactive)
same,GI50,BT-549,85.7 µM (inactive)
same,GI50,MOLT-4,27 µM (inactive)
same,GI50,SN12C,63.2 µM (inactive)
same,GI50,CAKI-1,> 100 µM (inactive)
same,GI50,KM12,35.9 µM (inactive)
same,GI50,TK-10,63.2 µM (inactive)
same,GI50,HT-29,65.8 µM (inactive)
same,GI50,UACC-62,46 µM (inactive)
same,GI50,NCI-H226,51.6 µM (inactive)
same,GI50,OVCAR-5,> 100 µM (inactive)
same,GI50,PC-3,33.7 µM (inactive)
same,GI50,HCT-15,49.8 µM
same,GI50,786-0,98.6 µM (inactive)
same,GI50,A549,35.5 µM (inactive)
same,GI50,NCI-H23,67.8 µM (inactive)
same,GI50,OVCAR-8,61.1 µM (inactive)
same,GI50,MDA-MB-435,33 µM (inactive)
same,GI50,M14,41.9 µM (inactive)
same,GI50,K562,47.4 µM (inactive)
same,GI50,HCC 2998,> 100 µM (inactive)
same,GI50,SR,26.1 µM (inactive)
same,GI50,Hs-578T,> 100 µM (inactive)
same,GI50,UO-31,70.5 µM (inactive)
same,GI50,RXF 393,27.7 µM (inactive)
same,GI50,SW-620,49.4 µM (inactive)
same,GI50,SF-539,> 100 µM (inactive)
same,GI50,SNB-75,56.6 µM (inactive)
same,GI50,SF-268,> 100 µM (inactive)
same,GI50,IGROV-1,56.2 µM (inactive)
same,GI50,A498,28.1 µM (inactive)
same,GI50,SNB-19,69.2 µM (inactive)
same,GI50,EKVX,83.2 µM (inactive)
same,GI50,COLO 205,26.5 µM (inactive)
same,GI50,HOP-92,23.7 µM (inactive)
same,GI50,RPMI-8226,32.4 µM (inactive)
same,GI50,MCF7,32.4 µM (inactive)
same,GI50,ACHN,38.5 µM (inactive)
same,GI50,SF-295,45 µM (inactive)
same,GI50,MDA-MB-231,26.9 µM (inactive)
same,GI50,HL-60,17.1 µM (inactive)
same,GI50,HCT-116,40.3 µM (inactive)
same,GI50,SK-MEL-28,> 100 µM (inactive)
same,GI50,T47D,27.2 µM (inactive)
same,GI50,CCRF-CEM,31.8 µM (inactive)
same,GI50,SK-MEL-5,24.5 µM (inactive)
same,GI50,NCI-H522,51.9 µM (inactive)
